Measurements published in patent US20240158446A1, “CYCLIC COMPOUND HAVING SELECTIVE INHIBITORY ACTION ON KRAS OVER HRAS AND NRAS” (CHUGAI SEIYAKU KABUSHIKI KAISHA, priority 2021, published 2024).
Like-named read-outs stand apart in the source and are kept apart here. *1 amine or outer side, *2 acyl side, *3 side chain or, on linkers, in order; H or OH if unused. Where a SMILES comes first, the peptide text is derived from it. Bridges are numbered along the chain shown (N, C = ends). [ ]: non-standard residue; d: D form. The star is where a group is joined. hPhe(3-Cl-4-CF3) = N[C@@H](CCc1ccc(C(F)(F)F)c(Cl)c1)C(=O)O; X37 = O=C([C@H](Cc1ccc(C(F)(F)F)cc1)N(CC1CCC1)[*:1])[*:2]; NPrPhe(4-CF3) = CCCN[C@@H](Cc1ccc(C(F)(F)F)cc1)C(=O)O; NMeGly(cPent) = CN[C@H](C(=O)O)C1CCCC1; X44 = CC1(C)CN([*:1])[C@@H]1C(=O)[*:2]; Hyp = O=C(O)[C@@H]1C[C@@H](O)CN1; NMeD = CN[C@@H](CC(=O)O)C(=O)O; NMeL = CN[C@@H](CC(C)C)C(=O)O; Morpholide = C1CN(*)CCO1; NMeA = CN[C@@H](C)C(=O)O; Ac5c = NC1(C(=O)O)CCCC1; Aze = O=C(O)[C@@H]1CCN1; Ac4c = NC1(C(=O)O)CCC1; Sar = CNCC(=O)O

Tests used:
[1] = target: GDP-bound KRAS wild-type protein (Homo sapiens, UniProt P01116); assay: Binding to KRAS by surface plasmon resonance (SPR), Single Cycle Kinetics; settings: GDP-bound KRAS wild-type protein, read-out: KRAS KD
[2] = target: GDP-bound NRAS wild-type protein (Homo sapiens, UniProt P01111); assay: Binding to NRAS by surface plasmon resonance (SPR), Single Cycle Kinetics; settings: for NRAS/KRAS (ratio of KD value with respect to GDP-bound NRAS wild-type protein to KD value with respect to KRAS): SPR KD ratio NRAS/KRAS, class symbols; for NRAS/KRAS (ratio of KD value for NRAS to KD value for KRAS) / NRAS/KRAS (ratio of KD value with respect to NRAS to KD value with respect to KRAS): SPR, GDP-bound NRAS wild-type protein vs GDP-bound KRAS wild-type protein
[3] = target: GDP-bound HRAS wild-type protein (Homo sapiens, UniProt P01112); assay: Binding to HRAS by surface plasmon resonance (SPR), Single Cycle Kinetics; settings: for HRAS/KRAS (ratio of KD value with respect to GDP-bound HRAS wild-type protein to KD value with respect to KRAS): SPR KD ratio HRAS/KRAS, class symbols; for HRAS/KRAS (ratio of KD value for HRAS to KD value for KRAS) / HRAS/KRAS (ratio of KD value with respect to HRAS to KD value with respect to KRAS): SPR, GDP-bound HRAS wild-type protein vs GDP-bound KRAS wild-type protein
[4] = SPR Single Cycle Kinetics, 1:1 binding model

GDP-bound KRAS wild-type protein, sequence (P01116 whole entry): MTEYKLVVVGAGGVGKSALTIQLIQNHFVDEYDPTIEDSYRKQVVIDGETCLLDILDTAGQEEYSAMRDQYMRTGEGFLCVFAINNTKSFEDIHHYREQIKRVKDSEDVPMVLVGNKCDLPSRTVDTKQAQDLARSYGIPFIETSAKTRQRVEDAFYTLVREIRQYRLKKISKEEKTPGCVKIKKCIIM
GDP-bound HRAS wild-type protein, sequence (P01112 whole entry): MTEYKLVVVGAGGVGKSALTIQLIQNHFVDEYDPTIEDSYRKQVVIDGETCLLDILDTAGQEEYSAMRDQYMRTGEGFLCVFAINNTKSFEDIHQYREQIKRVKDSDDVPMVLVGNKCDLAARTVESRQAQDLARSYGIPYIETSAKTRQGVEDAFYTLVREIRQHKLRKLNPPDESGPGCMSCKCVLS
GDP-bound NRAS wild-type protein, sequence (P01111 whole entry): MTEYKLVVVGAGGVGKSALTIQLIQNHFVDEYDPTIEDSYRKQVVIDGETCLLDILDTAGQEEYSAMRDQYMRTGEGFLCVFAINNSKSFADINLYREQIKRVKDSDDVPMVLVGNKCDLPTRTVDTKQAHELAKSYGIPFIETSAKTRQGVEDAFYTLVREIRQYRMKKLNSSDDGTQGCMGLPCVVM

SMILES	Kd [1, 4] [nM]	Kd ([1]; SPR, Single Cycle Kinetics) [nM]	NRAS/KRAS (ratio of KD value with respect to GDP-bound NRAS wild-type protein to KD value with respect to KRAS) [2]	HRAS/KRAS (ratio of KD value with respect to GDP-bound HRAS wild-type protein to KD value with respect to KRAS) [3]	NRAS/KRAS (ratio of KD value for NRAS to KD value for KRAS) [2]	HRAS/KRAS (ratio of KD value for HRAS to KD value for KRAS) [3]	NRAS/KRAS (ratio of KD value with respect to NRAS to KD value with respect to KRAS) [2]	HRAS/KRAS (ratio of KD value with respect to HRAS to KD value with respect to KRAS) [3]
CCC[C@H]1C(=O)N[C@@H]([C@@H](C)CC)C(=O)N(C)CC(=O)N(C)[C@H]2C/C=C\CCN(C2=O)[C@@H](Cc2ccc(C(F)(F)F)cc2)C(=O)N(C)CC(=O)N[C@@H](CCc2ccc(C(F)(F)F)c(OC)c2)C(=O)N2CC[C@H]2C(=O)NC2(CC(C)(C)C2)C(=O)N(C)[C@@H](C(CC)CC)C(=O)N(C)[C@H](C(=O)N(C)C)CC(=O)N1C [PP2936]	2.7		AA (a compound having 20 or more is denoted as AA)	A (a compound having 10 or more and less than 20 is denoted as A)				
CCC[C@H]1C(=O)N[C@@H]([C@@H](C)CC)C(=O)N(C)CC(=O)N(C)[C@H]2C/C=C\CCN(C2=O)[C@@H](Cc2ccc(C(F)(F)F)cc2)C(=O)N(C)CC(=O)N[C@@H](CCc2ccc(Cl)c(Cl)c2)C(=O)N2CC[C@H]2C(=O)NC2(CC(C)(C)C2)C(=O)N(C)[C@@H](C(CC)CC)C(=O)N(C)[C@H](C(=O)N(C)C)CC(=O)N1C [PP2921]	6.9		AA (a compound having 20 or more is denoted as AA)	A (a compound having 10 or more and less than 20 is denoted as A)				
CCC(CC)[C@H]1C(=O)N(C)[C@H](C(=O)N(C)C)CC(=O)N(C)[C@@H](COC)C(=O)N[C@@H]([C@@H](C)CC)C(=O)N(C)CC(=O)N(C)[C@H]2C/C=C\CCN(C2=O)[C@@H](Cc2ccc(C)cc2)C(=O)N(C)CC(=O)N[C@@H](CCc2ccc(Cl)c(Cl)c2)C(=O)N2C[C@H](OC3CCCC3)C[C@H]2C(=O)N(C)C2(CC(C)(C)C2)C(=O)N1C [PP2818]	0.88		A (a compound having 10 or more and less than 20 is denoted as A)	A (a compound having 10 or more and less than 20 is denoted as A)				
CC[C@H](C)[C@@H]1NC(=O)[C@H](COC)N(C)C(=O)C[C@@H](C(=O)N(C)C)N(C)C(=O)[C@H](C2CCCC2)N(C)C(=O)C2(CC(C)(C)C2)NC(=O)[C@@H]2C[C@@H](OC(C)C)CN2C(=O)[C@H](CCc2cc(F)c(C(F)(F)F)c(F)c2)NC(=O)CN(C)C(=O)[C@H](CC2CCCCC2)N2CC/C=C\C[C@@H](C2=O)N(C)C(=O)CN(C2CC2)C1=O [PP2511]		0.95			A (a compound having 10 or more and less than 20 is denoted as A)	A (a compound having 10 or more and less than 20 is denoted as A)		
CCCN1C(=O)CN(C)C(=O)[C@H]2N(CC2(C)C)C(=O)[C@H]([C@@H](C)CC)NC(=O)[C@H](CC(C)C)N(C)C(=O)C[C@@H](C(=O)N2CCOCC2)N(C)C(=O)[C@H](C2CCCC2)N(C)C(=O)C2(CCCC2)NC(=O)[C@@H]2CCCN2C(=O)[C@H](CCc2ccc(C(F)(F)F)c(Cl)c2)NC(=O)CN(C)C(=O)[C@@H]1Cc1ccc(C(F)(F)F)cc1 [PP0256] ([NMeL]I[X44][Sar][NPrPhe(4-CF3)][Sar][hPhe(3-Cl-4-CF3)]P[Ac5c][NMeGly(cPent)][NMeD]-Morpholide; lactam N-11)	0.99				B (a compound having 3 or more and less than 10 is denoted as B)	C (A compound having a KD ratio of 0.1 or more and less than 3 is denoted as C)		
CC[C@H](C)[C@@H]1NC(=O)[C@H](CC(C)C)N(C)C(=O)C[C@@H](C(=O)N2CCOCC2)N(C)C(=O)[C@H](C2CCCC2)N(C)C(=O)C2(CCCC2)NC(=O)[C@@H]2CCCN2C(=O)[C@H](CCc2ccc(C(F)(F)F)c(Cl)c2)NC(=O)CN(C)C(=O)[C@H](Cc2ccc(C(F)(F)F)cc2)N(CC2CCC2)C(=O)CN(C)C(=O)CN(C)C1=O [PP0123] ([NMeL]I[Sar][Sar][X37][Sar][hPhe(3-Cl-4-CF3)]P[Ac5c][NMeGly(cPent)][NMeD]-Morpholide; lactam N-11)	0.83				B (a compound having 3 or more and less than 10 is denoted as B)	C (A compound having a KD ratio of 0.1 or more and less than 3 is denoted as C)		
CCC[C@H]1C(=O)N[C@@H]([C@@H](C)CC)C(=O)N(C)CC(=O)N(C)[C@H]2C/C=C\CCN(C2=O)[C@@H](Cc2ccc(C)cc2)C(=O)N(C)CC(=O)N[C@@H](CCc2ccc(Cl)c(Cl)c2)C(=O)N2C[C@H](OCC)C[C@H]2C(=O)NC2(CC(C)(C)C2)C(=O)N(C)[C@@H](C(CC)CC)C(=O)N(C)[C@H](C(=O)N(C)C)CC(=O)N1C [PP2184]		0.7			AA (a compound having 20 or more is denoted as AA)	A (a compound having 10 or more and less than 20 is denoted as A)		
CCC[C@H]1C(=O)N[C@@H]([C@@H](C)CC)C(=O)N(C)CC(=O)N(C)[C@H]2C/C=C\CCN(C2=O)[C@@H](Cc2ccc(C(F)(F)F)cc2)C(=O)N(C)CC(=O)N[C@@H](CCc2ccc(C(F)(F)F)c(OC)c2)C(=O)N2CCCC[C@H]2C(=O)NC2(CC(C)(C)C2)C(=O)N(C)[C@@H](C(CC)CC)C(=O)N(C)[C@H](C(=O)N(C)C)CC(=O)N1C [PP2934]	2		AA (a compound having 20 or more is denoted as AA)	A (a compound having 10 or more and less than 20 is denoted as A)				

More lines, main results first:

Kd [1, 4] [nM]	Kd ([1]; SPR, Single Cycle Kinetics) [nM]	SMILES	NRAS/KRAS (ratio of KD value with respect to GDP-bound NRAS wild-type protein to KD value with respect to KRAS) [2]	HRAS/KRAS (ratio of KD value with respect to GDP-bound HRAS wild-type protein to KD value with respect to KRAS) [3]	NRAS/KRAS (ratio of KD value for NRAS to KD value for KRAS) [2]	HRAS/KRAS (ratio of KD value for HRAS to KD value for KRAS) [3]	NRAS/KRAS (ratio of KD value with respect to NRAS to KD value with respect to KRAS) [2]	HRAS/KRAS (ratio of KD value with respect to HRAS to KD value with respect to KRAS) [3]
	0.11	CCO[C@@H]1C[C@H]2C(=O)NC3(CCC3)C(=O)N(C)[C@@H](C3CCCC3)C(=O)N(C)[C@H](C(=O)N(C)C)CC(=O)N(C)[C@@H](CC)C(=O)N[C@@H]([C@@H](C)CC)C(=O)N(C)CC(=O)N(C)[C@H]3CC=C(C)CN(C3=O)[C@@H](Cc3ccc(C(F)(F)F)cc3)C(=O)N(C)CC(=O)N[C@@H](CCc3cc(F)c(C(F)(F)F)c(F)c3)C(=O)N2C1 [PP0827]			C (A compound having a KD ratio of 0.1 or more and less than 3 is denoted as C)	C (A compound having a KD ratio of 0.1 or more and less than 3 is denoted as C)		
0.02		CC[C@H](C)[C@@H]1NC(=O)[C@H](C)N(C)C(=O)C[C@@H](C(=O)N2CCOCC2)N(C)C(=O)[C@H](C2CCCC2)N(C)C(=O)C2(CCC2)NC(=O)[C@@H]2CC(F)(F)CN2C(=O)[C@H](CCc2cc(F)c(C(F)(F)F)c(F)c2)NC(=O)CN(C)C(=O)[C@H](Cc2ccc(C(F)(F)F)cc2)N2CCCC[C@@H](C2=O)N(C)C(=O)CN(C)C1=O [PP0582]					C (A compound having a KD ratio of 0.1 or more and less than 3 is denoted as C)	B (a compound having 3 or more and less than 10 is denoted as B)
0.047		CCCN1C(=O)[C@@H]2CCN2C(=O)[C@H](C)N(C)C(=O)[C@H]([C@@H](C)CC)NC(=O)[C@H](CC(C)C)N(C)C(=O)C[C@@H](C(=O)N(C)C)N(C)C(=O)[C@H](C2CCCC2)N(C)C(=O)C2(CCC2)NC(=O)[C@@H]2CCCN2C(=O)[C@H](CCc2ccc(C(F)(F)F)c(Cl)c2)NC(=O)CN(C)C(=O)[C@@H]1Cc1ccc(C(F)(F)F)cc1 [PP0435] ([NMeL]I[NMeA][Aze][NPrPhe(4-CF3)][Sar][hPhe(3-Cl-4-CF3)]P[Ac4c][NMeGly(cPent)][NMeD]-NMe2; lactam N-11)					C (A compound having a KD ratio of 0.1 or more and less than 3 is denoted as C)	C (A compound having a KD ratio of 0.1 or more and less than 3 is denoted as C)
0.14		CCCN1C(=O)CN(C)C(=O)CN(C)C(=O)[C@H]([C@@H](C)CC)NC(=O)[C@H](CC(C)C)N(C)C(=O)C[C@@H](C(=O)N(C)C)NC(=O)[C@H](C2CCCC2)N(C)C(=O)C2(CCCC2)NC(=O)[C@@H]2C[C@@H](OCC)CN2C(=O)[C@H](CCc2ccc(C(F)(F)F)c(Cl)c2)NC(=O)CN(C)C(=O)[C@@H]1Cc1ccc(C(F)(F)F)cc1 [PP0359] ([NMeL]I[Sar][Sar][NPrPhe(4-CF3)][Sar][hPhe(3-Cl-4-CF3)][Hyp](Et)[Ac5c][NMeGly(cPent)]D-NMe2; lactam N-11)			B (a compound having 3 or more and less than 10 is denoted as B)	B (a compound having 3 or more and less than 10 is denoted as B)		
	6	CCO[C@@H]1C[C@H]2C(=O)NC3(CCC3)C(=O)N(C)[C@@H](C3CCCC3)C(=O)N(CC)[C@H](C(=O)N3CCOCC3)CC(=O)N(C)[C@@H](Cc3ccccc3)C(=O)N[C@@H]([C@@H](C)CC)C(=O)N(C)CC(=O)N(C)[C@H]3CCCCCN(C3=O)[C@@H](Cc3ccc(C(F)(F)F)cc3)C(=O)N(C)CC(=O)N[C@@H](CCc3cc(F)c(C(F)(F)F)c(F)c3)C(=O)N2C1 [PP0950]			A (a compound having 10 or more and less than 20 is denoted as A)	B (a compound having 3 or more and less than 10 is denoted as B)		
